According to ChEMBL document CHEMBL1201862, “PubChem BioAssay data set” (2004):
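Assay format: 96-well plates, 48-hour exposure. The concentration for 50% growth inhibition is given as GI50.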 Activity calls are given as the source filed them. No stated cut-off is given here; in the data, active = GI50 up to about 1.1 µM and inactive = higher.

Legend:
Assay in all cases: NCI tumour cell line growth inhibition, 48 h
DU-145 = test system: DU-145
HCT-15 = test system: HCT-15
HOP-62 = test system: HOP-62
Hs-578T = test system: Hs-578T
IGROV-1 = test system: IGROV-1
K562 = test system: K562
MDA-N = test system: MDA-N
MOLT-4 = test system: MOLT-4
NCI-H226 = test system: NCI-H226
OVCAR-5 = test system: OVCAR-5
RPMI-8226 = test system: RPMI-8226
SF-268 = test system: SF-268
SK-MEL-28 = test system: SK-MEL-28
SK-MEL-2 = test system: SK-MEL-2
SNB-19 = test system: SNB-19
SW-620 = test system: SW-620
UACC-257 = test system: UACC-257
UO-31 = test system: UO-31
OVCAR-8 = test system: OVCAR-8

SMILES | GI50 (DU-145) | GI50 (HCT-15) [µM] | GI50 (HOP-62) | GI50 (Hs-578T) | GI50 (IGROV-1) | GI50 (K562) | GI50 (MDA-N) | GI50 (MOLT-4) | GI50 (NCI-H226) | GI50 (OVCAR-5) | GI50 (RPMI-8226) | GI50 (SF-268) | GI50 (SK-MEL-28) | GI50 (SK-MEL-2) | GI50 (SNB-19) | GI50 (SW-620) | GI50 (UACC-257) | GI50 (UO-31) | GI50 (OVCAR-8)
C=C(C)C1CC2=C(O1)C(=O)c1cccc(O)c1C2=O (stereo unspecified) | 1.76 µM (inactive) | 2.05 | 1.57 µM (inactive) | 1.16 µM (inactive) | 0.256 µM (active) | 0.0935 µM (active) | 0.064 µM (active) | 0.2 µM (active) | 1.78 µM (inactive) | 1.57 µM (inactive) | 0.265 µM (active) | 0.333 µM (active) | 1.7 µM (inactive) | 1.17 µM (inactive) | 1.95 µM (inactive) | 0.929 µM (active) | 0.271 µM (active) | 1.41 µM (inactive) | 
CN(C)CCn1c(=O)nc2c3c(c([N+](=O)[O-])ccc31)Nc1ccc(O)cc1-2 | 4.36 µM (inactive) | 16.7 | 2.47 µM (inactive) | 3.95 µM (inactive) | 1.16 µM (inactive) | 2.41 µM (inactive) | 6.7 µM (inactive) | 0.0638 µM (active) | 3.37 µM (inactive) | 15.1 µM (inactive) | 4.16 µM (inactive) | 1.95 µM (inactive) | 14.8 µM (inactive) | 15.7 µM (inactive) | 2.03 µM (inactive) | 1.73 µM (inactive) | 8.28 µM (inactive) | 3.44 µM (inactive) | 1.82 µM (inactive)
Cc1cc(C)n(C(C)(C(=O)Cc2ccccc2)n2nc(C)cc2C)n1 | > 100 µM (inactive) | > 100 | > 100 µM (inactive) | > 100 µM (inactive) | > 100 µM (inactive) | > 100 µM (inactive) | > 100 µM (inactive) | > 100 µM (inactive) | > 100 µM (inactive) | > 100 µM (inactive) | > 100 µM (inactive) | > 100 µM (inactive) | > 100 µM (inactive) | > 100 µM (inactive) | > 100 µM (inactive) | > 100 µM (inactive) |  | > 100 µM (inactive) | > 100 µM (inactive)
COc1ccc2[nH]cc(CCNC(=O)[C@H](Cc3ccc(O)cc3)NC(=O)[C@@H](NCC(F)(F)F)C(C)C)c2c1 | > 100 µM (inactive) | > 100 | > 100 µM (inactive) | 31 µM (inactive) | 97.7 µM (inactive) | 71.6 µM (inactive) | 45.1 µM (inactive) | 68.5 µM (inactive) | 41.8 µM (inactive) | > 100 µM (inactive) | 34.4 µM (inactive) |  | 65.5 µM (inactive) | 58.2 µM (inactive) | > 100 µM (inactive) | > 100 µM (inactive) | 62.5 µM (inactive) | > 100 µM (inactive) | 76 µM (inactive)
CC(C)(C)CC(C)(C)NC(=S)NO | > 100 µM (inactive) | > 100 | > 100 µM (inactive) | > 100 µM (inactive) | > 100 µM (inactive) | > 100 µM (inactive) | > 100 µM (inactive) | > 100 µM (inactive) | > 100 µM (inactive) | > 100 µM (inactive) | > 100 µM (inactive) | > 100 µM (inactive) | > 100 µM (inactive) | > 100 µM (inactive) | > 100 µM (inactive) | > 100 µM (inactive) | > 100 µM (inactive) | > 100 µM (inactive) | > 100 µM (inactive)
CNC(=S)N/N=C/c1cccc(C)n1 | 28.8 µM (inactive) | 26 | 20.7 µM (inactive) | > 91.8 µM (inactive) | 44.7 µM (inactive) | 42.8 µM (inactive) | 42 µM (inactive) | 39.8 µM (inactive) | > 50.7 µM (inactive) | 37.8 µM (inactive) | > 59.8 µM (inactive) | 25.9 µM (inactive) | 56.5 µM (inactive) | 49.1 µM (inactive) | 51.9 µM (inactive) | 49.1 µM (inactive) | 32.7 µM (inactive) | 20.7 µM (inactive) | 23.6 µM (inactive)
